According to patent EP2958919B1, “DIHYDROPTERIDINONES I” (Boehringer Ingelheim International GmbH, priority 2013, dated 2014):

Columns and labels:
Aβ total = Aβ total cellular assay in H4 neuroglioma cells stably expressing human APP695 (electrochemiluminescence), used for the ratio Aβ total IC50 / Aβ42 IC50; assay type: cell-based; details: higher ratio = more specific inhibition of Aβ42
Method: (§1) Cells were plated out to near confluency. The compounds to be tested were received as 10 mM stocks in 100% DMSO. A dilution series was initially generated in 100% DMSO and then diluted 200-fold in cell culture media such that the tested concentration range was 30 µM to 0.1 nM and the final DMSO concentration was 0.5%. The diluted compounds were incubated with the cells for 22 hours in an incubator at 37°C and 5% CO2. Aβ42 as well as Aβ total levels were then measured post-incubation from the supernatant of the cells. Aβ42 levels were determined using a specific electrochemiluminescence assay provided by Meso Scale Discovery (Catalog # L21CA-1) according to the manufacturer's protocol. Aβ total levels were likewise determined using a specific electrochemiluminescence assay provided by Meso Scale Discovery (Catalog # L21ZA-1) according to the manufacturer's protocol.
(§2) In order to absolutely define the described compounds as modulators of γ-Secretase as opposed to simply inhibitors of γ-Secretase, measurements of not only Aβ42 but also Aβ total are performed.

Aβ42 = Aβ42 cellular assay in H4 neuroglioma cells stably expressing human APP695 (electrochemiluminescence, Meso Scale Discovery); assay type: cell-based; details: 22 hours incubation, supernatant
Method: as §1, §2

Row | Structure (SMILES) | Ratio Aβ(total)/Aβ42 (Aβ total) | IC50 (Aβ42) [µM]
1 | CCc1nc(Nc2ccc(-c3cnc(C)o3)nc2)nc2c1N(C)C(=O)C1CCCN21 (centres unmarked) [Example 9] | >24 | 1.23
2 | COc1cc(Nc2nc(C(C)C)c3c(n2)N2CCN(C(=O)OC(C)(C)C)CC2C(=O)N3C)ccc1-n1cnc(C)c1 (centres unmarked) [Example 37] | 12 | 0.32
3 | CCc1nc(Nc2ccc(-n3cnc(C)c3)c(OC)c2)nc2c1NC(=O)[C@@]1(C)[C@@H](OC)CN21 (racemic) [Example 27] | 70 | 0.36
4 | CCN1C(=O)C2CCCCCN2c2nc(Nc3cnc(-n4cnc(C)c4)c(OC)c3)ncc21 (centres unmarked) [Example 5-4] | >175 | 0.172
5 | COc1cc(Nc2nc(CC(C)C)c3c(n2)N2CCCC2C(=O)N3C)ccc1-n1cnc(C)c1 (centres unmarked) [Example 33] | 171 | 0.076
6 | CCc1nc(Nc2ccc(-n3cnc(C)c3)c(C#N)c2)nc2c1N(C)C(=O)[C@@H]1C[C@@H](OC)CN21 [Example 15] | 36 | 0.145
7 | CC(C)Cc1nc(Nc2ccc(-c3cnn(C)c3)cc2)nc2c1N(C)C(=O)C1CCCN21 (centres unmarked) [Example 34] | 30 | 0.928
8 | CCc1nc(Nc2ccc(-n3cnc(C)c3)c(OC)c2)nc2c1N(C)C(=O)[C@@H]1C[C@@H](OC)CN21 [Example 14] | 67 | 0.097
9 | CN1C(=O)C2CCCN2c2nc(Nc3ccc(-c4cnn(C)c4)nc3)ncc21 (centres unmarked) [Example 12-2] | >5 | 5.75
10 | COc1cc(Nc2ncc3c(n2)N2CCCC2(C)C(=O)N3C)ccc1-n1cnc(C)c1 (centres unmarked) [Example 12] | 147 | 0.16
11 | CCc1nc(Nc2ccc(-n3cnc(C)c3)c(OC)c2)nc2c1N(C)C(=O)[C@@]1(C)C[C@@H](OC)CN21 [Example 24] | 181 | 0.166
12 | COc1cc(Nc2ncc3c(n2)N2CCCOCC2C(=O)N3)ccc1-n1cnc(C)c1 (centres unmarked) [Example 30] | 96 | 0.312
13 | Cc1cn(-c2ccc(Nc3nc(CC(C)C)c4c(n3)N3CCCC3C(=O)N4C)cc2C#N)cn1 (centres unmarked) [Example 35] | 71 | 0.126
14 | CCc1nc(Nc2ccc(-n3cnc(C)c3)c(OC)c2)nc2c1N(CCOC)C(=O)[C@@H]1C[C@@H](OC)CN21 [Example 19-1] | 131 | 0.201
15 | COc1cc(Nc2nc(C(C)C)c3c(n2)N2CCCC2C(=O)N3C)ccc1-n1cnc(C)c1 (centres unmarked) [Example 32] | 66 | 0.134
16 | COc1cc(Nc2ncc3c(n2)N2CCCC2C(=O)N3C)ccc1-n1cnc(C)c1 (centres unmarked) [Example 11] | >310 | 0.097
17 | CCc1nc(Nc2ccc(-n3cnc(C)c3)c(OC)c2)nc2c1N(C)C(=O)[C@]1(C)C[C@@H](OC)CN21 [Example 25] | 73 | 0.145
18 | CCc1nc(Nc2ccc(-c3cnc(C)o3)c(OC)c2)nc2c1NC(=O)[C@@H]1C[C@@H](OC)CN21 [Example 19] | 82 | 0.364
19 | CCc1nc(Nc2ccc(-n3cnc(C)c3)c(OC)c2)nc2c1N(C)C(=O)C1CCCN21 (centres unmarked) [Example 6] | 96 | 0.084
20 | COc1cc(Nc2nc(SC)c3c(n2)N2CCCCC2C(=O)N3C)ccc1-n1cnc(C)c1 (centres unmarked) [Example 13] | 14 | 0.42
21 | CCN1C(=O)C2CCCCCN2c2nc(Nc3ccc(-n4cnc(C)c4)c(OC)c3)ncc21 (centres unmarked) [Example 1] | 127 | 0.048
22 | CCc1nc(Nc2ccc(-n3cnc(C)c3)c(OC)c2)nc2c1NC(=O)[C@@H]1C[C@@H](OC)CN21 [Example 17] | 68 | 0.299
23 | CCN1C(=O)C2CCCCCN2c2nc(Nc3ccc(-n4ccnc4)c(OC)c3)ncc21 (centres unmarked) [Example 5-2] | 64 | 0.175
24 | COc1cc(Nc2ncc3c(n2)N2CCCOC2(C)C(=O)N3C)ccc1-n1cnc(C)c1 (centres unmarked) [Example 31] | 55 | 0.54
25 | COc1cc(Nc2ncc3c(n2)N2CCCC2C(=O)N3C)ccc1-n1ncnc1C (centres unmarked) [Example 12-4] | >39 | 0.754

Row | Structure (SMILES) | Ratio Aβ(total)/Aβ42 (Aβ total) | IC50 (Aβ42) [µM]
26 | CCCN1C(=O)C2CCCCCN2c2nc(Nc3ccc(-n4cnc(C)c4)c(OC)c3)ncc21 (centres unmarked) [Example 4] | 44 | 0.113
27 | CCc1nc(Nc2ccc(-c3cnc(C)o3)c(OC)c2)nc2c1N(C)C(=O)C1CCCN21 (centres unmarked) [Example 10] | 189 | 0.149
28 | CCN1C(=O)C2CCCCCN2c2nc(Nc3ccc(-c4cnc(C)s4)c(OC)c3)ncc21 (centres unmarked) [Example 5-5] | 13 | 0.711
29 | Cc1cn(-c2ccc(Nc3ncc4c(n3)N3CCCC3C(=O)N4C)cc2F)cn1 (centres unmarked) [Example 12-3] | >27 | 1.1
30 | CCc1nc(Nc2ccc(-n3cnc(C)c3)c(OC)c2)nc2c1N(C)C(=O)C1CCCCN21 (centres unmarked) [Example 36] | 86 | 0.064
31 | CCc1nc(Nc2ccc(-n3cnc(C)c3)c(OC)c2)nc2c1NC(=O)C1CC(OC)CCN21 (racemic) [Example 20] | 30 | 0.223
32 | CCc1nc(Nc2ccc(-n3cnc(C)c3)c(OC)c2)nc2c1NC(=O)C1COCCN21 (centres unmarked) [Example 28] | 29 | 0.272
33 | CCCN1C(=O)C2CCCCCN2c2nc(Nc3ccc(-c4ccnc(C)c4)cc3)ncc21 (centres unmarked) [Example 5] | 14 | 0.72
34 | CCN1C(=O)C2CCCCCN2c2nc(Nc3ccc(-n4cnc(C)n4)c(OC)c3)ncc21 (centres unmarked) [Example 5-3] | 101 | 0.265
35 | CCc1nc(Nc2ccc(-n3cnc(C)c3)c(OC)c2)nc2c1N(C)C(=O)[C@H]1[C@H](c3ccc(F)cc3)CCN21 (racemic) [Example 23] | 90 | 0.07
36 | CCc1nc(Nc2ccc(-c3cnc(C)o3)c(OC)c2)nc2c1N(C)C(=O)[C@@H]1C[C@@H](OC)CN21 [Example 18] | 215 | 0.14
37 | CCN1C(=O)C2CCCCCN2c2nc(Nc3ccc(-n4cnc(C)c4)cc3OC)ncc21 (centres unmarked) [Example 5-7] | 3 | 11.4
38 | CCc1nc(Nc2ccc(-n3cnc(C)c3)c(OC)c2)nc2c1NC(=O)[C@H]1[C@@H](c3ccc(F)cc3)CCN21 (racemic) [Example 22] | 71 | 0.818
39 | CCc1nc(Nc2ccc(-n3cnc(C)c3)c(OC)c2)nc2c1N(C)C(=O)C1CC(OC)CCN21 (racemic) [Example 21] | 98 | 0.105
40 | CCc1nc(Nc2ccc(-n3cnc(C)c3)c(OC)c2)nc2c1NC(=O)C1CCCN21 (centres unmarked) [Example 7] | 98 | 0.096
41 | COc1cc(Nc2ncc3c(n2)N2CCCC2C(=O)N3C)ccc1-n1cnc(C)n1 (centres unmarked) [Example 12-1] | >10 | 2.94
42 | CCN1C(=O)C2CCCCCN2c2nc(Nc3ccc(-c4ccnc(C)c4)cc3)ncc21 (centres unmarked) [Example 3] | 17 | 0.398
43 | CCc1nc(Nc2ccc(-c3ccnc(C)c3)cc2)nc2c1N(C)C(=O)C1CCCN21 (centres unmarked) [Example 8] | 62 | 0.293
44 | COc1cc(Nc2ncc3c(n2)N2CCCCCC2C(=O)N3C)ccc1-n1cnc(C)c1 (centres unmarked) [Example 2] | 59 | 0.097
45 | COc1cc(Nc2nc(CC(C)C)c3c(n2)N2C[C@H](OC)C[C@]2(C)C(=O)N3C)ccc1-n1cnc(C)c1 [Example 26] | 253 | 0.063
46 | CCN1C(=O)C2CCCCCN2c2nc(Nc3ccc(-n4cnc(C)c4)cc3)ncc21 (centres unmarked) [Example 5-6] | 43 | 0.704
47 | CCc1nc(Nc2ccc(-n3cnc(C)c3)c(OC)c2)nc2c1N(C)C(=O)C1COCCN21 (centres unmarked) [Example 29] | 76 | 0.231
48 | CCc1nc(Nc2ccc(-n3cnc(C)c3)c(C#N)c2)nc2c1NC(=O)[C@@H]1C[C@@H](OC)CN21 [Example 16] | 33 | 0.222
49 | COc1cc(Nc2ncc3c(n2)N2CCCCCC2C(=O)N3C(C)C)ccc1-n1cnc(C)c1 (centres unmarked) [Example 5-1] | 109 | 0.072
